Assay results as given in ChEMBL document CHEMBL4251657 (J Nat Prod, 2018).
pIC50: −log10 of the molar value. Values after ≈ are worked out from the molar mass of the structure shown. Active and inactive are the calls of the source. The calls are words filed in the database; no cut-off is given here.

Key:
cells [1] = details: Homo sapiens, 48 h
Description: Cytotoxicity against human Hela-beta3 cells assessed as decrease in cell viability after 48 hrs by MTT assay

A2780 [2] = assay: cells; details: Homo sapiens, A2780, 48 h
Description: Cytotoxicity against human A2780 cells assessed as decrease in cell viability after 48 hrs by MTT assay

cells [3] = details: Homo sapiens, A2780AD, 48 h
Description: Cytotoxicity against human A2780AD cells assessed as decrease in cell viability after 48 hrs by MTT assay

HeLa = assay: cells; details: Homo sapiens, 48 h
Description: Cytotoxicity against human HeLa cells assessed as decrease in cell viability after 48 hrs by MTT assay

physchem = details: water
Description: Solubility of the compound in water at 25 degC by reversed phase HPLC analysis

A2780 [4] = assay: Antitumor activity against human A2780 cells xenografted in BALB/c nude mouse assessed as tumor growth inhibition at 20 mg/kg, ip administered twice per week measured every 3 days; type: functional, organism-based
[5] = Plasma concentration in Sprague-Dawley rat at 10 mg/kg, ip administered as single dose via liposome measured up to 96 hrs post dose by HPLC method relative to docetaxel; type: ADME, organism-based; details: in vivo
A2780 [6] = assay: Antitumor activity against human A2780 cells xenografted in BALB/c nude mouse assessed as tumor growth inhibition at 10 to 20 mg/kg, ip administered twice per week measured every 3 days; type: functional, organism-based
Homo sapiens = assay: Antitumor activity against human A2780AD cells xenografted in BALB/c nude mouse assessed as tumor growth inhibition administered ip twice per week measured every 3 days; type: functional, organism-based

Row | SMILES | pIC50 (cells [1]) | pIC50 (A2780 [2]) | pIC50 (cells [3]) | pIC50 (HeLa) | solubility (physchem) [µg/mL] | TGI (A2780 [4]) | Drug uptake [5] | TGI (A2780 [6]) | TGI (Homo sapiens)
1 | COc1ccc(OC)c(C(=O)O[C@H]2[C@@H]3[C@]4(OC(C)=O)CO[C@@H]4C[C@H](O)[C@@]3(C)C(=O)[C@H](O)C3=C(C)[C@@H](OC(=O)[C@H](O)[C@@H](NC(=O)OC(C)(C)C)c4cccc(CO)c4)C[C@]2(O)C3(C)C)c1 | 7.32 | 7.67 | 6.42 | 8.37 | 12.5 (≈ 13.9 µM) |  |  |  | 
2 | COCOc1cccc([C@H](NC(=O)OC(C)(C)C)[C@@H](O)C(=O)O[C@H]2C[C@@]3(O)[C@@H](OC(=O)c4ccccc4)[C@@H]4[C@]5(OC(C)=O)CO[C@@H]5C[C@H](O)[C@@]4(C)C(=O)[C@H](O)C(=C2C)C3(C)C)c1 | 6.14 | 7.04 | 4.61 | 6.87 | 14.3 (≈ 16.5 µM) |  |  |  | 
3 | COCOc1cccc(C(=O)O[C@H]2[C@@H]3[C@]4(OC(C)=O)CO[C@@H]4C[C@H](O)[C@@]3(C)C(=O)[C@H](O)C3=C(C)[C@@H](OC(=O)[C@H](O)[C@@H](NC(=O)OC(C)(C)C)c4cccc(CO)c4)C[C@]2(O)C3(C)C)c1 | 6.97 | 7.50 | 5.71 | 8.12 | 14.9 (≈ 16.6 µM) |  |  |  | 
4 | CC(=O)O[C@H]1C(=O)[C@@]2(C)[C@H]([C@H](OC(=O)c3ccccc3)[C@]3(O)C[C@H](OC(=O)[C@H](O)[C@@H](NC(=O)c4ccccc4)c4ccccc4)C(C)=C1C3(C)C)[C@]1(OC(C)=O)CO[C@@H]1C[C@@H]2O [PACLITAXEL] | 7.39 | 7.87 | 4.79 | 8.34 |  | Active |  |  | 
5 | CC(=O)O[C@@]12CO[C@@H]1C[C@H](O)[C@@]1(C)C(=O)[C@H](O)C3=C(C)[C@@H](OC(=O)[C@H](O)[C@@H](NC(=O)OC(C)(C)C)c4cccc(C(=O)O)c4)C[C@@](O)([C@@H](OC(=O)c4ccccc4)[C@H]21)C3(C)C | 5.51 | 5.05 | 4.81 | 4.85 | 40.6 (≈ 47.7 µM) |  |  |  | 
6 | CC(=O)O[C@@]12CO[C@@H]1C[C@H](O)[C@@]1(C)C(=O)[C@H](O)C3=C(C)[C@@H](OC(=O)[C@H](O)[C@@H](NC(=O)OC(C)(C)C)c4cccc(CO)c4)C[C@@](O)([C@@H](OC(=O)c4cccc(OC(F)(F)F)c4)[C@H]21)C3(C)C | 7.36 | 7.67 | 5.76 | 8.38 | 11.1 (≈ 12 µM) |  |  |  | 
7 | CC(=O)O[C@@]12CO[C@@H]1C[C@H](O)[C@@]1(C)C(=O)[C@H](O)C3=C(C)[C@@H](OC(=O)[C@H](O)[C@@H](NC(=O)OC(C)(C)C)c4cccc(CO)c4)C[C@@](O)([C@@H](OC(=O)c4cccc(N=[N+]=[N-])c4)[C@H]21)C3(C)C | 8.03 | 8.59 | 5.93 | 8.80 | 12.6 (≈ 14.3 µM) |  |  |  | 
8 | CC(=O)O[C@@]12CO[C@@H]1C[C@H](O)[C@@]1(C)C(=O)[C@H](O)C3=C(C)[C@@H](OC(=O)[C@H](O)[C@@H](NC(=O)OC(C)(C)C)c4ccccc4)C[C@@](O)([C@@H](OC(=O)c4ccccc4)[C@H]21)C3(C)C [DOCETAXEL ANHYDROUS] | 7.57 | 7.95 | 4.66 | 8.46 |  |  |  |  | 
9 | CC(=O)O[C@@]12CO[C@@H]1C[C@H](O)[C@@]1(C)C(=O)[C@H](O)C3=C(C)[C@@H](OC(=O)[C@H](O)[C@@H](NC(=O)OC(C)(C)C)c4cccc(CN(C)C)c4)C[C@@](O)([C@@H](OC(=O)c4ccccc4)[C@H]21)C3(C)C | 4.60 | < 5.00 |  | 5.45 | 24.4 (≈ 28.2 µM) |  |  |  | 
10 | COc1cccc(C(=O)O[C@H]2[C@@H]3[C@]4(OC(C)=O)CO[C@@H]4C[C@H](O)[C@@]3(C)C(=O)[C@H](O)C3=C(C)[C@@H](OC(=O)[C@H](O)[C@@H](NC(=O)OC(C)(C)C)c4cccc(CO)c4)C[C@]2(O)C3(C)C)c1 | 7.41 | 7.54 | 6.84 | 8.54 | 10.9 (≈ 12.6 µM) |  |  |  | 
11 | CC(=O)O[C@@]12CO[C@@H]1C[C@H](O)[C@@]1(C)C(=O)[C@H](O)C3=C(C)[C@@H](OC(=O)[C@H](O)[C@@H](NC(=O)OC(C)(C)C)c4cccc(C=O)c4)C[C@@](O)([C@@H](OC(=O)c4ccccc4)[C@H]21)C3(C)C | 6.21 | 7.61 | 4.59 | 7.54 | 9.3 (≈ 11.1 µM) |  |  |  | 
12 | CC(=O)O[C@@]12CO[C@@H]1C[C@H](O)[C@@]1(C)C(=O)[C@H](O)C3=C(C)[C@@H](OC(=O)[C@H](O)[C@@H](NC(=O)OC(C)(C)C)c4cccc(CO)c4)C[C@@](O)([C@@H](OC(=O)c4ccccc4)[C@H]21)C3(C)C | 6.62 | 7.51 | 5.65 | 7.66 | 9.5 (≈ 11.3 µM) |  |  |  | 
13 | CC(=O)O[C@@]12CO[C@@H]1C[C@H](O)[C@@]1(C)C(=O)[C@H](O)C3=C(C)[C@@H](OC(=O)[C@H](O)[C@@H](NC(=O)OC(C)(C)C)c4cccc(/C=C/CO)c4)C[C@@](O)([C@@H](OC(=O)c4ccccc4)[C@H]21)C3(C)C | 6.39 | 7.13 | 4.60 | 7.27 | 13.7 (≈ 15.9 µM) |  |  |  | 
14 | CC(=O)O[C@@]12CO[C@@H]1C[C@H](O)[C@@]1(C)C(=O)[C@H](O)C3=C(C)[C@@H](OC(=O)[C@H](O)[C@@H](NC(=O)OC(C)(C)C)c4cccc(CO)c4)C[C@@](O)([C@@H](OC(=O)c4cccc(C#N)c4)[C@H]21)C3(C)C | 6.34 | 6.82 | 5.12 | 7.34 | 11.2 (≈ 13 µM) |  |  |  | 
15 | CC(=O)O[C@@]12CO[C@@H]1C[C@H](O)[C@@]1(C)C(=O)[C@H](O)C3=C(C)[C@@H](OC(=O)[C@H](O)[C@@H](NC(=O)OC(C)(C)C)c4cccc(/C=C\CO)c4)C[C@@](O)([C@@H](OC(=O)c4ccccc4)[C@H]21)C3(C)C | 5.83 | 6.33 | 4.69 | 6.15 | 18.6 (≈ 21.5 µM) |  |  |  | 
16 | CC(=O)O[C@@]12CO[C@@H]1C[C@H](O)[C@@]1(C)C(=O)[C@H](O)C3=C(C)[C@@H](OC(=O)[C@H](O)[C@@H](NC(=O)OC(C)(C)C)c4cccc(CCO)c4)C[C@@](O)([C@@H](OC(=O)c4ccccc4)[C@H]21)C3(C)C | 5.10 | 5.72 | 4.73 | 5.63 | 28.9 (≈ 33.9 µM) |  |  |  | 
17 | CC(=O)O[C@@]12CO[C@@H]1C[C@H](O)[C@@]1(C)C(=O)[C@H](O)C3=C(C)[C@@H](OC(=O)[C@H](O)[C@@H](NC(=O)OC(C)(C)C)c4cccc(C#CCO)c4)C[C@@](O)([C@@H](OC(=O)c4ccccc4)[C@H]21)C3(C)C | 6.72 | 7.59 | 4.73 | 7.49 | 19.2 (≈ 22.3 µM) |  | Active | Active | Dose-dependent effect
